Assay results taken from article PMC8428802 (Journal of medicinal chemistry, 2020).
Each block holds one molecule with its values, some of them ahead of it.

Legend:
[1] = biological target: human GPR52 (Homo sapiens, UniProt Q9Y2T5); assay: Glosensor cAMP assay in HEK293 cells transiently expressing human GPR52; type: cell-based; settings: for decreased EC50 (loss of potency): comparator not stated
[2] = biological target: hERG (Homo sapiens, UniProt Q12809); assay: NIMH-PDSP counter screening, hERG binding; settings: 10 μM
[3] = biological target: over 30 brain receptors or channels; assay: NIMH-PDSP broad-panel counter screening; type: binding; settings: 10 μM
[4] = system: HEK293 cells lacking GPR52; assay: cAMP control study in HEK293 cells lacking GPR52; type: cell-based, human

human GPR52, sequence (Q9Y2T5 whole entry): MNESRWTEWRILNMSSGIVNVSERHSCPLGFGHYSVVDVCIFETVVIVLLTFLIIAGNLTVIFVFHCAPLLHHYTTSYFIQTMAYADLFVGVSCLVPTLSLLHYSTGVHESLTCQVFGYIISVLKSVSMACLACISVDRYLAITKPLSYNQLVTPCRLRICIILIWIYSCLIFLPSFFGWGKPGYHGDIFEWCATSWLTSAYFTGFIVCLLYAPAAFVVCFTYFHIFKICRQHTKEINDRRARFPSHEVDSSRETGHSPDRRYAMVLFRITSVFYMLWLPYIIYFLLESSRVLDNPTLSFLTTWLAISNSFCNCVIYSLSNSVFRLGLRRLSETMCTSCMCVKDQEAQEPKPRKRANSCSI
hERG, sequence (Q12809 whole entry): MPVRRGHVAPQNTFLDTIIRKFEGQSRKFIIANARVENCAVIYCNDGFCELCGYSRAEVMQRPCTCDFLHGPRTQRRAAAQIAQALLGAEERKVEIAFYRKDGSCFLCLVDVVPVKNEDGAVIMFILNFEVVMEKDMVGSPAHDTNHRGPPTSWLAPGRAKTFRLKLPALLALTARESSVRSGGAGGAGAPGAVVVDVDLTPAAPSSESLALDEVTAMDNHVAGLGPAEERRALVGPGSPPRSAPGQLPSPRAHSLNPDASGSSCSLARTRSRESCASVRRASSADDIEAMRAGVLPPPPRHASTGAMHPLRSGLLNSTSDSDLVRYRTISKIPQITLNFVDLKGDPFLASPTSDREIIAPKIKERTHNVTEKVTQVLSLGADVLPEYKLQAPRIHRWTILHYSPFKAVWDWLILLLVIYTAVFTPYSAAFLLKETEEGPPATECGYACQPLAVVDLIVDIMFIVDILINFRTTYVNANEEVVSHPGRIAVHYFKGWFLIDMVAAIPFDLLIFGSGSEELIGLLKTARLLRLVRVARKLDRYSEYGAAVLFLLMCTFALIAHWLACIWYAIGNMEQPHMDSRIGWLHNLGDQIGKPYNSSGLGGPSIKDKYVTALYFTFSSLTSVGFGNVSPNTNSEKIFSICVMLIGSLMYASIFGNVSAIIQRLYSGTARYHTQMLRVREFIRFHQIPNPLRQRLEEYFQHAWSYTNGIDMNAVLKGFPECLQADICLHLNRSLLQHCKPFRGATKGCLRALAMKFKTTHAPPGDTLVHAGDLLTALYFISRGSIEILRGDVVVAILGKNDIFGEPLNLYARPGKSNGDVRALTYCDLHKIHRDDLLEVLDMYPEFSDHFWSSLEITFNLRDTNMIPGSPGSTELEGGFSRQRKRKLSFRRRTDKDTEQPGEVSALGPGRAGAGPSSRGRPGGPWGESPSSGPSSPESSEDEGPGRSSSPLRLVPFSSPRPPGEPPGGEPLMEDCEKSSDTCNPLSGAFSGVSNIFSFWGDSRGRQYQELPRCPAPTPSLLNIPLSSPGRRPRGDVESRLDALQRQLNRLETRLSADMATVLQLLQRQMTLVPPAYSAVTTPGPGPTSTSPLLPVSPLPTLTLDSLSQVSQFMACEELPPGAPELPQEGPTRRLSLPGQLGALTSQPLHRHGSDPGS

SMILES: O=C(NCCO)c1cccc2c1CCN2c1nncc(Cc2cc(F)cc(C(F)(F)F)c2)c1Cl [Compound 12f, 1-(4-Chloro-5-(3-fluoro-5-(trifluoromethyl)benzyl)-pyridazin-3-yl)-N-(2-hydroxyethyl)indoline-4-carboxamide]
decreased EC50 (loss of potency) [1]: > 4 fold

loss of potency relative to 23a ([1]; EC50 vs compound 23a): > 7 fold
SMILES: O=C(NCCO)c1cccc2c1CCN2c1cc(Cc2ccccc2C(F)(F)F)ncn1 [Compound 23b, N-(2-Hydroxyethyl)-1-(6-(2-(trifluoromethyl)benzyl)-pyrimidin-4-yl)indoline-4-carboxamide]

SMILES: Cc1c(Cc2cc(F)cc(C(F)(F)F)c2)cnnc1N1CCc2c(C(=O)NCCO)cccc21 [Compound 12e, 1-(5-(3-Fluoro-5-(trifluoromethyl)benzyl)-4-methylpyridazin-3-yl)-N-(2-hydroxyethyl)indoline-4-carboxamide]
decreased EC50 (loss of potency) [1]: > 4 fold

binding affinity (Ki) at panel [3]: no significant binding affinity
SMILES: O=C(NCCO)c1cccc2c1CCN2c1cc(Cc2cc(F)cc(C(F)(F)F)c2)ncn1 [Compound 12c, 1-(6-(3-Fluoro-5-(trifluoromethyl)benzyl)pyrimidin-4-yl)-N-(2-hydroxyethyl)indoline-4-carboxamide]
hERG potassium channel binding activity [2]: did not show any | cAMP increase in cells lacking GPR52 [4]: did not increase cAMP
